Molecule `Cc1ccc2[nH]c(C)cc2c1` registered a melting point of 115 °C. Consider `COC(=O)C1CCC(C)(C(C)(C)O)OC1(C)C` (stereo not given), for which the melting point came out at 139 °C. The molecule `O=C(OCC1CC1)c1cnc(Cl)nc1C(F)(F)F` returned a melting point of 108 to 110 °C. Under `O=C=Nc1ccc2c(c1)CCO2` stands 42 to 43 °C; under `COc1cccc(N(C)C(=S)Oc2cccc(C(C)(C)C)c2)n1`, 86 °C; under `C=CCn1c(SC)nc2nc(SC)n(C)c2c1=O`, 111 to 113 °C.

With `CC1(c2ccccc2)CC(C(=NOCC(=O)c2ccccc2)c2cc3ccccc3o2)C1` (stereo not given), the melting point was in the range of 154 to 155 °C.

In turn, `O=c1cc(-c2ccccc2)oc2cccc(O)c12` showed a melting point of 158 °C.

On to `CCOCOC(=O)c1ccccc1Nc1c(Cl)ccc(C)c1Cl`, for which the melting point turned out to be 73.5 °C. For the molecule `COc1c(C#N)cc(C)c2c1CCC2`, the melting point was in the range of 62 to 63 °C. As for `COc1cc(N)c(C#N)cc1OC`, the melting point is 99 °C. The value for `O=S(=O)(c1ccccc1)N1CCNCC1` was 111 to 112 °C; that for `O=C(O)c1ccccc1C1c2ccc(O)cc2Oc2cc(O)ccc21` was 126 °C. Under `CC(C)(C)C(C)(C)O` stands 17 °C; under `BrCC1CO1` (stereo not given), -40 °C. Consider `O=C(O)Cc1cccc(Cl)c1Cl`, for which the melting point amounted to 134 °C.

Turning to `CC(C)(C)OC(=O)N1CC(=O)C1`, the melting point is 51 °C. `O=C1OC(=O)C2=C1CC1=C(CC=CC1)C2` had a melting point of 204 °C.

Consider `CCC(CC)C(=O)O`, for which the melting point is -14 °C. With `CN(C)CCOc1ccccc1C(=O)O`, the melting point is 108 to 109 °C.

For `CCOc1ccc2ccccc2c1C(=O)O`, the melting point worked out at 144 °C. Under `O=C(O)c1c(O)ccc(F)c1F` stands 183 °C; under `OCc1ccc(Br)cn1`, 59 to 60 °C; under `CC(=O)Nc1c(Cl)cccc1Cl`, 181 °C. The value for `Brc1ccc2occ(Br)c2c1` was 77 to 78 °C.

`CC(C)(C)C(=O)C=Cc1ccccc1` registered a melting point of 43 °C. `COc1ccc(Cl)c(Cl)c1` had a melting point of -8 °C.

For the molecule `c1ccc2sncc2c1`, the melting point was 38 °C. Regarding `COC(=O)c1cc(O)no1`, the melting point fell in the range of 159 to 160 °C. Consider `O=C(O)CCc1cccc(O)c1`, for which the melting point was found to be 112 °C.

Regarding `CC(=O)NC(Cc1ccc(Br)cc1)C(=O)O` (stereo not given), the melting point fell in the range of 191 to 193 °C. On to `Cc1cc(=O)oc(C)c1C(=O)O`, for which the melting point lay in the range of 154 to 156 °C. The molecule `O=C(O)c1ccccc1-n1ccnc1` returned a melting point of 198 to 200 °C. Under `COC(=O)c1scc(S(C)(=O)=O)c1N` stands 145 °C; under `BrCC(CBr)=C(CBr)CBr`, 135 to 145 °C. In the case of `CCOC(=O)c1sc(Br)nc1C`, the melting point fell in the range of 65 to 66 °C.

`Nc1c(Cl)cc(C(F)(F)F)cc1Br` came in with a melting point of 31 °C. `ON=C1CCCSC1` had a melting point of 103 to 104 °C. With `Cc1ccc(C(=O)c2cc3c(cc2Br)OCCO3)cc1`, the melting point fell in the range of 110 to 112 °C. Molecule `N#CCC(=O)NN` showed a melting point of 114 °C. Under `CSC(Nc1ccccc1)=C(C#N)C#N` stands 80 °C; under `CCOC(=O)c1c(Nc2ccc(OC)cc2)sc2c(-c3ccc(Cl)cc3)c(C#N)c(N)nc12`, 220 to 224 °C. In the case of `C#CC`, the melting point is -103 °C. As to `ClC(=C(Cl)c1ccccc1)c1ccccc1`, the melting point was 144 °C.

Turning to `Brc1ccc(Oc2ccccc2Br)c(Br)c1`, the melting point was under 20 °C.

Turning to `O=S(=O)(Cl)Cc1ccc(Cl)c(Cl)c1`, the melting point is 65 to 68 °C. As for `CCCCCCCCCCCCCC(=O)OCc1ccccc1`, the melting point came out at 20.5 °C. As for `COC(=O)CCc1cc(CCC(=O)OC)c([N+](=O)[O-])cc1[N+](=O)[O-]`, the melting point was 71 °C. On to `CCN1CC2(COC)CCC(O)C34C5CC6C(OC)CC(O)(C5C6OC)C(O)(C(OC)C23)C14` (stereo not given), for which the melting point came to 214 °C.

As to `O=C(Nc1ccc([N+](=O)[O-])cc1[N+](=O)[O-])C(C(F)(F)F)C(F)(F)F`, the melting point lay in the range of 120 to 122 °C.

Consider `CNC(N)=O`, for which the melting point worked out at 103 °C. Molecule `Clc1ncnc2ccsc12` registered a melting point of 125 to 126 °C. The value for `CC(=O)Oc1ccc([N+](=O)[O-])cc1[N+](=O)[O-]` was 69 to 75 °C.

Turning to `CC(C)(C)Oc1ncc(Br)c(OC(C)(C)C)n1`, the melting point is 60 °C. With `O=S(=O)(Cl)Cc1cccc(F)c1`, the melting point lay in the range of 39 to 41 °C. Under `O=C1c2ccccc2C(=C2c3ccccc3C(=O)c3ccccc32)c2ccccc21` stands 300 °C; under `N#C/C(=N\Nc1ccc(Br)cc1)c1nc2ccccc2s1`, 280 °C; under `COC(=O)c1cscc1N`, 35 to 38 °C. Consider `O=P1(NC2CCCCC2)Oc2ccccc2-c2ccccc2O1`, for which the melting point worked out at 160 °C.

In turn, `CC(Cc1ccc(O)c(O)c1)(NN)C(=O)O` (stereo not given) returned a melting point of 208 °C. In turn, `Cc1ccnc(NS(=O)(=O)c2ccc(N)cc2)n1` registered a melting point of 234 °C. Regarding `N#Cc1ccncc1Br`, the melting point came to 93 °C.

In turn, `Cc1cc(C)cc(C2Oc3c(Cl)c(Cl)c(Cl)c(Cl)c3O2)c1` displayed a melting point of 160 °C. The value for `CCOC(=O)c1sc(-c2ccc(C)cc2)nc1O` was 128 to 130 °C; that for `Nc1ccc(N)c(N)c1` was 97.3 °C; that for `O=C(NC1CCN(CCc2c[nH]c3ccccc23)CC1)c1ccccc1` was 208 °C. Molecule `C1CCNC1` came in with a melting point of -57.8 °C. In turn, `Oc1ccc(Cl)cc1Cc1cc(Cl)ccc1O` had a melting point of 178 °C. `COC(=O)Oc1ccccc1C(=O)O` yielded a melting point of 134 °C. `CC1=C(C(=O)Nc2ccccc2)S(=O)(=O)CCO1` yielded a melting point of 120 °C. For the molecule `CN(C)Cc1ncccc1O`, the melting point is 55 to 60 °C. Under `O=C1CC(c2cccc(C3=NN(c4ccccc4)C(=O)C3)c2)=NN1c1ccccc1` stands 263 °C. Molecule `CCOC(=O)N/C=C1/C(=O)C2(C)CCC1C2(C)C` (stereo not given) yielded a melting point of 162 °C. `Cc1cccc(O)c1C(=O)O` showed a melting point of 173 °C. The value for `O=C(O)c1ccccc1Nc1cccc(C(F)(F)F)c1` was 134 °C; that for `CC(C)(C)Oc1ccccc1` was -24 °C; that for `C[C@]12CC[C@H]3[C@@H](CCC4CC(=O)CC[C@@]43C)C1=CCC2=O` (stereo not given in full) was 151 °C. Take `CC(C)(O)CC(C)(O)c1ccc(Cl)cc1` (stereo not given): the melting point stood at 76.5 °C. In the case of `CC(C)(C)c1cc(N)[nH]n1`, the melting point fell in the range of 60 to 62 °C. On to `Cc1cccc(N)c1N`, for which the melting point was 63.5 °C. With `NNC(=O)CCc1ccc(O)cc1`, the melting point lay in the range of 223 to 225 °C. `O=C1c2ccc(C=NO)cc2C(=O)c2c(Cl)c(Cl)c(Cl)c(Cl)c21`: the melting point lay in the range of 234 to 235 °C.

`O=C1CCN(C(=O)CCl)N1` had a melting point of 146 °C. As to `Cc1nnsc1-c1onc(C)c1C(=O)Cl`, the melting point was in the range of 66 to 70 °C. The value for `Cc1cc2c3c(c1)c(O)c(-c1ccccc1)c(=O)n3CCC2` was 215 to 218 °C; that for `NC(=S)NCCN1CCCCC1` was 107 to 110 °C. Under `NNc1c(Cl)cc(Cl)cc1Cl` stands 142 °C; under `CCS(=O)(=O)Oc1ccc2c(c1)C(C)(C)CO2`, 30 °C. In turn, `O=C(O)C1(C(=O)O)C2CCCCCCC21` (stereo not given) came in with a melting point of 217 °C. `CC1=C(C(N)=O)C(c2ccccc2)NC(=O)N1` (stereo not given) displayed a melting point of 260 to 262 °C.

For `CC1(O)Cc2ccccc21` (stereo not given), the melting point is 78 °C. `O=C1c2ccccc2CC2c3ccccc3CCN12` (stereo not given) returned a melting point of 173 °C. In turn, `Fc1cnccc1I` yielded a melting point of 88 °C. Turning to `CC(=O)N1C(=O)Cc2cc3c(cc21)N(C(C)=O)C(=O)C3`, the melting point stood at 295 °C. As to `Nc1ccccc1S`, the melting point worked out at 26 °C.

Consider `Cc1ccc(-c2csc(/C(C#N)=N/Nc3ccc(F)cc3)n2)cc1`, for which the melting point stood at 196 °C.

`BrCc1cc(CBr)c(CBr)cc1CBr` returned a melting point of 156 to 162 °C. For the molecule `CC12CCC(C=CC1=O)C2(C)C` (stereo not given), the melting point was determined as 174 °C. The value for `CCOC(=O)Nc1c([N+](=O)[O-])cc(Cl)cc1[N+](=O)[O-]` was 167 °C; that for `Cc1ccc(Br)c([N+](=O)[O-])c1` was 31 °C; that for `Clc1c(Cl)c(Cl)c2c(c1Cl)Oc1c(Cl)c(Cl)c(Cl)c(Cl)c1O2` was 330 °C. The molecule `CCC(=O)OC1CCC2C3CCC4CC(=O)C(C)CC4(C)C3CCC12C` (stereo not given) gave a melting point of 128 °C.

For the molecule `Cc1c(C#N)cccc1C#N`, the melting point was 136 °C.

For the molecule `CC(=O)C(=Cc1ccc(-c2ccccc2[N+](=O)[O-])o1)C(C)=O`, the melting point lay within 127 to 128 °C. Under `N[C@H](CO)[C@H](O)c1ccccc1` stands 110 to 114 °C; under `CC(=O)Nc1cccc(N=[N+]([O-])c2cccc(NC(C)=O)c2)c1`, 254 °C; under `CCCCCCCC(=O)OCC(COC(=O)CCCCCCC)OC(=O)CCCCCCC`, 10 °C.

In turn, `Ic1ccc2[nH]ccc2c1` yielded a melting point of 99 °C. In turn, `CC(O)c1cc(C(F)(F)F)cc(C(F)(F)F)c1` (stereo not given) displayed a melting point of 72 °C. Turning to `OCC1OC(O)C(O)C1O` (stereo not given), the melting point was in the range of 88 to 92 °C. Molecule `C=C(C)CCCCCCCCCCCCCCCC` gave a melting point of 14 °C. Molecule `Cc1c(C)c(C)c(N)c(C)c1C` registered a melting point of 152 °C. In turn, `CCCCCCCCCCCCCCCCCC(=O)OCCCCCCCCCCCCCCCC` yielded a melting point of 57 °C. Regarding `c1ccc2c(c1)NC1(CCCC1)N2`, the melting point turned out to be 190 °C. With `CC1(C)CC(=O)C2=C(C1)OC1CCCCC21` (stereo not given), the melting point was 63 to 66 °C.

By melting point is commonly meant the temperature, or range, at which the solid turns liquid.

For the origin of these results see a melting point compilation (Tetko et al.).
